Reference: the NIST ThermoML archive (doi:10.1021/je050483s)
± gives the expanded uncertainty stated by the source.

How the values were obtained:
[1] = xn = mol fraction of the nth substance listed; conditions: 101 kPa, Liquid
[2] = 101 kPa, Liquid

Compound `O` [water] + C1CCNC1 has a speed of sound ([1]; 313 K, x2 = 0) of 1529 ± 1.5 m/s.

For `C1CCNC1` [pyrrolidine] + O, the speed of sound ([1]; 293 K, x1 = 0.006) was 1501.6 ± 1.5 m/s, the speed of sound ([1]; 293 K, x1 = 0.01) was 1517.1 ± 1.5 m/s and the speed of sound ([1]; 293 K, x1 = 0.022) was 1557.9 ± 1.5 m/s. It also gave a speed of sound ([1]; 293 K, x1 = 0.068) of 1650.5 ± 1.6 m/s, a speed of sound ([1]; 293 K, x1 = 0.116) of 1654.8 ± 1.6 m/s and a speed of sound ([1]; 293 K, x1 = 0.208) of 1626.3 ± 1.6 m/s. It also gave a speed of sound ([1]; 293 K, x1 = 0.304) of 1589.8 ± 1.6 m/s, a speed of sound ([1]; 293 K, x1 = 0.396) of 1556.7 ± 1.6 m/s and a speed of sound ([1]; 293 K, x1 = 0.483) of 1528.8 ± 1.6 m/s. The speed of sound ([1]; 293 K, x1 = 0.567) was 1500.3 ± 1.7 m/s, the speed of sound ([1]; 293 K, x1 = 0.686) was 1467.5 ± 1.7 m/s and the speed of sound ([1]; 293 K, x1 = 0.868) was 1416.6 ± 1.7 m/s. It also gave a speed of sound ([1]; 293 K, x1 = 1) of 1389.4 ± 1.8 m/s, a speed of sound ([1]; 303 K, x1 = 0.006) of 1525.2 ± 1.5 m/s and a speed of sound ([1]; 303 K, x1 = 0.01) of 1537.1 ± 1.5 m/s. It also gave a speed of sound ([1]; 303 K, x1 = 0.022) of 1569.8 ± 1.5 m/s, a speed of sound ([1]; 303 K, x1 = 0.068) of 1635.1 ± 1.6 m/s and a speed of sound ([1]; 303 K, x1 = 0.116) of 1631.8 ± 1.6 m/s. It also gave a speed of sound ([1]; 303 K, x1 = 0.208) of 1596.4 ± 1.6 m/s, a speed of sound ([1]; 303 K, x1 = 0.304) of 1555.3 ± 1.6 m/s and a speed of sound ([1]; 303 K, x1 = 0.396) of 1519.5 ± 1.6 m/s. The speed of sound ([1]; 303 K, x1 = 0.483) was 1489.9 ± 1.6 m/s, the speed of sound ([1]; 303 K, x1 = 0.567) was 1458.9 ± 1.6 m/s and the speed of sound ([1]; 303 K, x1 = 0.686) was 1426.8 ± 1.6 m/s. The speed of sound ([1]; 303 K, x1 = 0.868) was 1375.5 ± 1.7 m/s, the speed of sound ([1]; 303 K, x1 = 1) was 1348 ± 1.8 m/s and the speed of sound ([1]; 313 K, x1 = 0.006) was 1541.5 ± 1.5 m/s. It also gave a speed of sound ([1]; 313 K, x1 = 0.01) of 1551.1 ± 1.5 m/s, a speed of sound ([1]; 313 K, x1 = 0.022) of 1576.6 ± 1.5 m/s and a speed of sound ([1]; 313 K, x1 = 0.068) of 1619.3 ± 1.6 m/s. It also gave a speed of sound ([1]; 313 K, x1 = 0.116) of 1608 ± 1.6 m/s, a speed of sound ([1]; 313 K, x1 = 0.208) of 1565.5 ± 1.6 m/s and a speed of sound ([1]; 313 K, x1 = 0.304) of 1520 ± 1.6 m/s. It also gave a speed of sound ([1]; 313 K, x1 = 0.396) of 1481.6 ± 1.6 m/s, a speed of sound ([1]; 313 K, x1 = 0.483) of 1450.5 ± 1.6 m/s and a speed of sound ([1]; 313 K, x1 = 0.567) of 1422.2 ± 1.6 m/s. It also gave a speed of sound ([1]; 313 K, x1 = 0.686) of 1385.6 ± 1.6 m/s, a speed of sound ([1]; 313 K, x1 = 0.868) of 1333.8 ± 1.7 m/s and a speed of sound ([1]; 313 K, x1 = 1) of 1305.8 ± 1.7 m/s. For the same compound, the speed of sound ([1]; 323 K, x1 = 0.006) was 1552.2 ± 1.5 m/s, the speed of sound ([1]; 323 K, x1 = 0.01) was 1559.7 ± 1.5 m/s and the speed of sound ([1]; 323 K, x1 = 0.022) was 1578.7 ± 1.5 m/s. The speed of sound ([1]; 323 K, x1 = 0.068) was 1602.3 ± 1.6 m/s, the speed of sound ([1]; 323 K, x1 = 0.116) was 1583.2 ± 1.6 m/s and the speed of sound ([1]; 323 K, x1 = 0.208) was 1533.5 ± 1.6 m/s. The speed of sound ([1]; 323 K, x1 = 0.304) was 1483.9 ± 1.6 m/s, the speed of sound ([1]; 323 K, x1 = 0.396) was 1443 ± 1.6 m/s and the speed of sound ([1]; 323 K, x1 = 0.483) was 1410.5 ± 1.6 m/s. The speed of sound ([1]; 323 K, x1 = 0.567) was 1377.7 ± 1.6 m/s, the speed of sound ([1]; 323 K, x1 = 0.686) was 1344 ± 1.6 m/s and the speed of sound ([1]; 323 K, x1 = 0.868) was 1291.7 ± 1.6 m/s. For the same compound, the speed of sound ([1]; 323 K, x1 = 1) was 1263 ± 1.7 m/s.

With `C1CCNCC1` [piperidine] + O the speed of sound ([1]; 293 K, x1 = 0.006) was 1506.5 ± 1.8 m/s, the speed of sound ([1]; 293 K, x1 = 0.011) was 1531.1 ± 1.8 m/s and the speed of sound ([1]; 293 K, x1 = 0.028) was 1590.1 ± 1.9 m/s. The speed of sound ([1]; 293 K, x1 = 0.057) was 1596.3 ± 1.9 m/s, the speed of sound ([1]; 293 K, x1 = 0.099) was 1593.6 ± 1.9 m/s and the speed of sound ([1]; 293 K, x1 = 0.18) was 1575.4 ± 1.9 m/s. For the same compound, the speed of sound ([1]; 293 K, x1 = 0.267) was 1550.2 ± 1.9 m/s, the speed of sound ([1]; 293 K, x1 = 0.354) was 1525.1 ± 1.9 m/s and the speed of sound ([1]; 293 K, x1 = 0.439) was 1499.8 ± 1.9 m/s. For the same compound, the speed of sound ([1]; 293 K, x1 = 0.523) was 1477 ± 1.9 m/s, the speed of sound ([1]; 293 K, x1 = 0.646) was 1445.3 ± 1.9 m/s and the speed of sound ([1]; 293 K, x1 = 0.846) was 1406.2 ± 1.9 m/s. For the same compound, the speed of sound ([1]; 293 K, x1 = 1) was 1384.4 ± 1.9 m/s, the speed of sound ([1]; 303 K, x1 = 0.006) was 1528.7 ± 1.8 m/s and the speed of sound ([1]; 303 K, x1 = 0.011) was 1548.7 ± 1.8 m/s. For the same compound, the speed of sound ([1]; 303 K, x1 = 0.028) was 1588.3 ± 1.9 m/s, the speed of sound ([1]; 303 K, x1 = 0.057) was 1587.1 ± 1.9 m/s and the speed of sound ([1]; 303 K, x1 = 0.099) was 1576.5 ± 1.9 m/s. For the same compound, the speed of sound ([1]; 303 K, x1 = 0.18) was 1547.9 ± 1.9 m/s, the speed of sound ([1]; 303 K, x1 = 0.267) was 1517.2 ± 1.9 m/s and the speed of sound ([1]; 303 K, x1 = 0.354) was 1489.1 ± 1.9 m/s. The speed of sound ([1]; 303 K, x1 = 0.439) was 1461.1 ± 1.8 m/s, the speed of sound ([1]; 303 K, x1 = 0.523) was 1438 ± 1.8 m/s and the speed of sound ([1]; 303 K, x1 = 0.646) was 1405.2 ± 1.8 m/s. The speed of sound ([1]; 303 K, x1 = 0.846) was 1365.1 ± 1.8 m/s, the speed of sound ([1]; 303 K, x1 = 1) was 1342.3 ± 1.8 m/s and the speed of sound ([1]; 313 K, x1 = 0.006) was 1544.8 ± 1.8 m/s. For the same compound, the speed of sound ([1]; 313 K, x1 = 0.011) was 1560.4 ± 1.8 m/s, the speed of sound ([1]; 313 K, x1 = 0.028) was 1584.5 ± 1.9 m/s and the speed of sound ([1]; 313 K, x1 = 0.057) was 1576 ± 1.9 m/s. For the same compound, the speed of sound ([1]; 313 K, x1 = 0.099) was 1557.5 ± 1.8 m/s, the speed of sound ([1]; 313 K, x1 = 0.18) was 1519.2 ± 1.8 m/s and the speed of sound ([1]; 313 K, x1 = 0.267) was 1483.5 ± 1.8 m/s. It also gave a speed of sound ([1]; 313 K, x1 = 0.354) of 1452.5 ± 1.8 m/s, a speed of sound ([1]; 313 K, x1 = 0.439) of 1424 ± 1.8 m/s and a speed of sound ([1]; 313 K, x1 = 0.523) of 1398.6 ± 1.8 m/s. It also gave a speed of sound ([1]; 313 K, x1 = 0.646) of 1364.8 ± 1.8 m/s, a speed of sound ([1]; 313 K, x1 = 0.846) of 1323.6 ± 1.8 m/s and a speed of sound ([1]; 313 K, x1 = 1) of 1299.9 ± 1.8 m/s. The speed of sound ([1]; 323 K, x1 = 0.006) was 1555.1 ± 1.8 m/s, the speed of sound ([1]; 323 K, x1 = 0.011) was 1566.8 ± 1.8 m/s and the speed of sound ([1]; 323 K, x1 = 0.028) was 1578.3 ± 1.9 m/s. The speed of sound ([1]; 323 K, x1 = 0.057) was 1562.7 ± 1.8 m/s, the speed of sound ([1]; 323 K, x1 = 0.099) was 1536.6 ± 1.8 m/s and the speed of sound ([1]; 323 K, x1 = 0.18) was 1489.3 ± 1.8 m/s. For the same compound, the speed of sound ([1]; 323 K, x1 = 0.267) was 1449 ± 1.8 m/s, the speed of sound ([1]; 323 K, x1 = 0.354) was 1415.4 ± 1.8 m/s and the speed of sound ([1]; 323 K, x1 = 0.439) was 1384.9 ± 1.8 m/s. The speed of sound ([1]; 323 K, x1 = 0.523) was 1358.9 ± 1.8 m/s, the speed of sound ([1]; 323 K, x1 = 0.646) was 1324.2 ± 1.8 m/s and the speed of sound ([1]; 323 K, x1 = 0.846) was 1282 ± 1.8 m/s. It also gave a speed of sound ([1]; 323 K, x1 = 1) of 1257.4 ± 1.8 m/s.

`C1CCNCC1` [piperidine] showed a speed of sound ([2]; 293 K) of 1384.4 ± 1.9 m/s, a speed of sound ([2]; 303 K) of 1342.3 ± 1.8 m/s and a speed of sound ([2]; 313 K) of 1299.9 ± 1.8 m/s. It also gave a speed of sound ([2]; 323 K) of 1257.4 ± 1.8 m/s.

In the case of `O` [water] + C1CCNCC1, the speed of sound ([1]; 313 K, x2 = 0) is reported as 1529 ± 1.8 m/s.

Work on `C1CCNC1` [pyrrolidine] yielded a speed of sound ([2]; 293 K) of 1389.4 ± 1.8 m/s, a speed of sound ([2]; 303 K) of 1348 ± 1.8 m/s and a speed of sound ([2]; 313 K) of 1305.8 ± 1.7 m/s. For the same compound, the speed of sound ([2]; 323 K) was 1263 ± 1.7 m/s.
